Read-outs that look alike come from different tables or passages of the source.
How the values were obtained:
[1] = 1H NMR titration of di- and trivalent metals over UTP (KD1); type: binding; conditions: metal 0-1400 µM, UTP 239.2 or 250 µM, 293 K, 600 MHz, read-out: KD1, dissociation constant for the interaction of UTP with di- and trivalent metals
[2] = target: UTP:LmUGP complex; assay: Four-states binding model, metal binding to UTP in complex with LmUGP (KD4); parameters: species or system Leishmania major; conditions: approximated by nonlinear least-squares minimization of the four-states model from KD1-3
[3] = parameters: method as in Zea et al. [2008]; conditions: isothermal titration calorimetry; ref Zea et al. [2008]; read-out: KD1, dissociation constant for the interaction of UTP with divalent metals (converted); cited from earlier work

Compound	Kd [1]	Kd [2]	Kd [3]
[Cl][Eu]([Cl])[Cl] [EuCl3]	28 ± 9 µM	38 ± 12 µM	–
[Cl][Mn][Cl] [MnCl2]	–	–	77 ± 12 µM
[Cl][Ce]([Cl])[Cl] [CeCl3]	13 ± 4 µM	17 ± 5 µM	–
[Cl][Lu]([Cl])[Cl] [LuCl3]	38 ± 17 µM	46 ± 21 µM	–
[Cl-].[Cl-].[Mg+2] [MgCl2]	82 ± 6 µM	115 ± 10 µM	70 µM
[Cl][La]([Cl])[Cl] [LaCl3]	11 ± 5 µM	15 ± 7 µM	–
